Reference: patent US6511592B1, “Biosensor for pentachlorophenol” (ISIS Innovation Limited, priority 1998, dated 2003)

Legend:
PCPH [1] = target: T1, PCPH (Sphingobium chlorophenolicum, UniProt P42535); experiment: Substrate range of PCPH, oxidation determined by gas chromatography; type: biochemical, Flavobacterum sp. (ATCC 53874); parameters: made in house; host or cells: E. coli strain DH5a (tac promoter vector)
Description: Samples from the environment contain many other compounds which may be substrates for PCPH and therefore interfere with PCP biosensing. The substrate range of the PCPH enzyme was therefore investigated. The compounds tested as possible substrates were toluene, biphenyl, phenylcyclohexane, 1-phenylcyclohexene, diphenylmethane, bibenzyl and hexadecane, included as a model long-chain alkane.

[2] = target: T2, pentachlorophenol hydroxylase (PCPH) (Sphingobium chlorophenolicum, UniProt P42535); conditions: earlier investigation of the substrate range (Orser and co-workers); cited from earlier work
T2 sequence (P42535 2-538): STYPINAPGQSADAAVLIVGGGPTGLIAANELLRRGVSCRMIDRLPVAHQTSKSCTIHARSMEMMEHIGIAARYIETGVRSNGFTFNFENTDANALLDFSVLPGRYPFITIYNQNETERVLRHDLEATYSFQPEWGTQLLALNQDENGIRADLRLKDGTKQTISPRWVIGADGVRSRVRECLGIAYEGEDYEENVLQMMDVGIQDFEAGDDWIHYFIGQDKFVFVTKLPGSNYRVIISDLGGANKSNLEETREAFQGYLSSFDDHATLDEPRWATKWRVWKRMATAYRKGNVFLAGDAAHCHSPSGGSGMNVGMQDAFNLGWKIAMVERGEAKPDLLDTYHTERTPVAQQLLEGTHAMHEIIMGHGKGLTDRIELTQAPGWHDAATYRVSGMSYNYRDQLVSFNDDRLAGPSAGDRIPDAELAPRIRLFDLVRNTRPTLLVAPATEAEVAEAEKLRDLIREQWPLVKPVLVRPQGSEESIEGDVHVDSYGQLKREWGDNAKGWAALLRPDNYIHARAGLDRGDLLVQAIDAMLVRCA

PCPH [3] = target: T1, PCPH; experiment: PCP concentration-dependent catalytic current, immobilised PCPH electrode
PCPH [4] = conditions: -800 mV, aerobic, after 30 mins; cyclic voltammetry and gas chromatography of the organic extract

**Q.** With `Cc1ccccc1` [toluene] as the compound, how does the “oxidised by PCPH (substrate or not)” value (PCPH [1]) read?
**A.** None of the compounds except bibenzyl was oxidised by PCPH

**Q.** For `Clc1cc(Cl)c(Cl)c(Cl)c1Cl` [pentachlorobenzene], which “substrate of PCPH (oxidised / attacked)” value [2] is on record?
**A.** not

**Q.** For `c1ccc(CCc2ccccc2)cc1` [bibenzyl], which “oxidised by PCPH (substrate or not)” value (PCPH [1]) is on record?
**A.** a very small amount of product was detected

**Q.** For `Oc1cccc(Cl)c1Cl` [2,3-dichlorophenol], which “substrate of PCPH (oxidised / attacked)” value [2] is on record?
**A.** poor substrate

**Q.** For `CCCCCCCCCCCCCCCC` [hexadecane], which “oxidised by PCPH (substrate or not)” value (PCPH [1]) is on record?
**A.** None of the compounds except bibenzyl was oxidised by PCPH

**Q.** For `c1ccc(C2CCCCC2)cc1` [phenylcyclohexane], which “oxidised by PCPH (substrate or not)” value (PCPH [1]) is on record?
**A.** None of the compounds except bibenzyl was oxidised by PCPH

**Q.** Which “oxidised by PCPH (substrate or not)” value (PCPH [1]) does the source give for `c1ccc(-c2ccccc2)cc1` [biphenyl] here?
**A.** None of the compounds except bibenzyl was oxidised by PCPH

**Q.** For `c1ccccc1` [benzene], which “substrate of PCPH (oxidised / attacked)” value [2] is on record?
**A.** not substrates

**Q.** Which “oxidised by PCPH (substrate or not)” value (PCPH [1]) does the source give for `c1ccc(Cc2ccccc2)cc1` [diphenylmethane] here?
**A.** None of the compounds except bibenzyl was oxidised by PCPH

**Q.** For `Oc1c(Cl)c(Cl)c(Cl)c(Cl)c1Cl` [PCP, pentachlorophenol], which “linear range of concentration dependence of the catalytic current” value (PCPH [3]; PCPH 87 μM in the solution evaporated on the electrode, FIG. 1) is on record?
**A.** ca. 8 μM

**Q.** And the “linear range of concentration dependence of the catalytic current” value (PCPH [3]; PCPH 196 μM in the solution evaporated on the electrode, FIG. 2)?
**A.** ca. 25 μM

**Q.** What about the “substrate of PCPH (oxidised / attacked)” value [2] of the same compound?
**A.** oxidised by PCPH

**Q.** And the “product of electrochemically driven oxidation by PCPH” value (PCPH [4])?
**A.** showed the presence of TeCH

**Q.** With `C1=C(c2ccccc2)CCCC1` [1-phenylcyclohexene] as the compound, how does the “oxidised by PCPH (substrate or not)” value (PCPH [1]) read?
**A.** None of the compounds except bibenzyl was oxidised by PCPH
